Test results from publication PMC12410723, “Structure-function studies of Vibrio cholerae quorum-sensing receptor CqsR signal recognition” (PLOS Pathogens, 2025).

Columns and labels:
[1] = target: CqsR periplasmic domain (CqsRp) (Vibrio cholerae, UniProt Q9KR16); conditions: MST binding studies, summary of Fig 4
[2] = test system: CqsR-Y169A; conditions: CqsR-Y169A strain, exogenously added ethanolamine
[3] = test system: CqsR-W151A; conditions: CqsR-W151A strain, exogenously added ethanolamine
[4] = test system: CqsR; conditions: in vivo / in culture, high-cell-density phenotype; cited from earlier work
[5] = test system: CqsR-D171A; conditions: CqsR-D171A strain, exogenously added ethanolamine
[6] = test system: CqsR-T196A; conditions: CqsR-T196A strain, exogenously added ethanolamine
[7] = test system: CqsR-D198N; conditions: CqsR-D198N strain, exogenously added ethanolamine
[8] = test system: WT CqsR; conditions: WT CqsR strain, exogenously added ethanolamine
[9] = test system: CqsRp; conditions: thermal unfolding; cited from earlier work

## CCC(N)CO (stereo not shown) [2-amino-1-butanol]
[1]
  CqsR binding (in words): Weak CqsR binding

## CC[C@H](N)CO [(S)-(+)-2-amino-1-butanol]
[1]
  CqsR binding (in words): Weak CqsR binding

## C[C@H](N)C(=O)O [Alanine, alanine]
[1]
  CqsR binding (in words): not tolerated

## NCCO [Ethanolamine, ethanolamine]
[2]
  qrr4 transcription (bioluminescence): reduced to a level comparable to that of the WT
[3]
  qrr4 transcription (bioluminescence): intermediate phenotype
[4]
  CqsR signaling agonism: acted as CqsR signaling agonists
[5]
  qrr4 transcription (bioluminescence): intermediate phenotype
[6]
  qrr4 transcription (bioluminescence): reduced to a level comparable to that of the WT
[7]
  qrr4 transcription (bioluminescence): completely irresponsive
[8]
  qrr4 transcription (bioluminescence): reduced in a dose-dependent manner

## OCCO [Ethylene glycol, ethylene glycol]
[1]
  CqsR binding (in words): No binding

## NCCN [Ethylenediamine, ethylenediamine]
[1]
  CqsR binding (in words): Weak CqsR binding

## OCC(O)CO [Glycerol, glycerol]
[1]
  CqsR binding (in words): No binding

## NCC(=O)O [Glycine, glycine]
[1]
  CqsR binding (in words): not tolerated

## C[C@H](N)CO [L-alaninol]
[9]
  CqsRp melting temperature: increased

## NC(CO)CO [Serinol, serinol]
[9]
  CqsRp melting temperature: increased

## NC(CO)(CO)CO [Tris, tris]
[1]
  CqsR binding (in words): Weak CqsR binding

## NCCS [cysteamine]
[1]
  CqsR binding (in words): not tolerated

## NCC(N)=O [glycinamide]
[1]
  CqsR binding (in words): not tolerated

## CCC(N)CC [pentan-3-amine]
[1]
  CqsR binding (in words): not tolerated

## CCCO [propanol]
[1]
  CqsR binding (in words): No binding

## CCCN [propylamine]
[1]
  CqsR binding (in words): not tolerated
